Measurements reported in patent US8431596B2 (Cancer Research Technology Limited, priority 2007, dated 2013).
pIC50: −log10 of the molar value. Values joined by “and” are separate entries in the source; they are usually repeats but may differ in a detail not shown here. Identical values can stand only once.

Molecular target: T1, AXL (human catalytic domain) (Homo sapiens, UniProt P30530)
T1 construct: purchased Upstate Ltd. 14-512
T1 sequence (P30530 473-894): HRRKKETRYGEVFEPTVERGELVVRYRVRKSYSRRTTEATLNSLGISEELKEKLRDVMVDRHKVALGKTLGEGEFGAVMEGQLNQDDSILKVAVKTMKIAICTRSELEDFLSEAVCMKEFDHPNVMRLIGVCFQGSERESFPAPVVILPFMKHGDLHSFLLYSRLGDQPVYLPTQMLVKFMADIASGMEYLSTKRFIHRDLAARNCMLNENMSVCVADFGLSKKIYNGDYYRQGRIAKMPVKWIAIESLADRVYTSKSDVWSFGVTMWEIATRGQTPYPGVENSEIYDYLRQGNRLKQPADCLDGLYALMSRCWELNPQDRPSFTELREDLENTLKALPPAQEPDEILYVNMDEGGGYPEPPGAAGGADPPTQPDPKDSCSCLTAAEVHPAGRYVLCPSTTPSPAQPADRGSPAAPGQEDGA
Test: AXL (human catalytic domain) Enzyme Activity Assay (IMAP fluorescence polarisation)
Assay type: biochemical
Method: Biological Methods AXL (human catalytic domain) Enzyme Activity Assay Reagents
Kinase Assay Reaction Buffer: This consisted of 20 mM HEPES pH 7.0, 10 mM MgCl2, 1 mM DTT, […], 0.01% Triton X100 (v/v), and 0.01% BSA (w/v). All buffer components were purchased from Sigma-Aldrich at reagent grade or higher.
Kinase: Recombinant AXL isoform 1 (aa473-894 corresponding to Genbank Accession Number NP 068713) at 2 mg/mL (20.8 μM) was purchased from Upstate Ltd. (Product code 14-512, lot #28164U). The enzyme was stored at −80° C. and a working stock was prepared to a concentration of 30 nM by diluting 20.8 μM stock 1:693 in cold (4° C.) 1× Reaction Buffer. Final enzyme concentration in the assay was 15 nM.
Substrate: Fluorescein labelled CSK-tide 5FAM-[…]-NH2 was obtained from Molecular Devices (Product code R7270) and used at a working concentration of 200 nM by diluting the 100 μM stock 1:500 in 1× Reaction Buffer in a mix with the enzyme. A negative control (lacking enzyme) was prepared at the same concentrations. Final substrate concentration in the assay was 100 nM.
ATP: Supplied by Sigma (product code A-7699). A 100 mM ATP stock was prepared in […] and used at a working concentration of 375 μM by diluting the 100 mM stock 1:266.6 in Reaction Buffer. Final ATP concentration in the assay was 150 μM; this concentration represents the KM.ATP for this enzyme calculated in this assay.
IMAP Reagents: IMAP screening express kit was obtained from Molecular Devices (product code R8127). The binding reagent was gently re-suspended before diluting by 1:1000 in buffer (Binding Buffer is supplied as a 5× stock and so was diluted with water prior to use—this assay used 40% buffer A and 60% buffer B) and then vortexed before addition to wells. The binding reagent was used at a final dilution of 1:1333.
1 μL samples of test compounds in 10% DMSO/water were added to “test” wells by dry-spotting using a Matrix Platemate Plus. 5 μL Kinase/Substrate in Reaction Buffer were added to columns 1-22 of a Corning black low binding 384 well #6754 (90 μL volume) microplate to give 12 nM and 100 nM reaction concentration respectively. 5 μL substrate in Reaction Buffer was added to columns 23 and 24 to give 100 nM reaction concentration. 4 μL ATP in Reaction Buffer was added to all wells to give 150 μM reaction concentration. The reaction mixture was then incubated at room temperature for 60 minutes. The incubation period was followed by the addition of 20 μL IMAP Binding Reagent in Binding Buffer to all wells. The IMAP reaction detection was further incubated at room temperature overnight. The FP on a Tecan Ultra Plate reader was recorded as a single read at Ex485 Em535.
Percentage inhibition was calculated based on activity of the test sample minus the average values in the blank wells relative to the average values measured in control wells minus the average values in the blank wells.
IC50 values were calculated from 10 point dose sigmoid ‘dose-response’ curves using XIfit software (IDBS Inc, USA). Data were fitted to a 4 parameter logistic model/sigmoidal dose response defined by the following equation:
[formula] where: • A=fit minimum (locked to 0); • B=fit maximum (locked to 100); • C=fit midpoint (pre-fit to 1); and • D=slope at linear portion of curve, hillslope (pre-fit to 0.1).
The value for C represents the IC50 of the test compound.

[1] = first data set, recombinant AXL isoform 1 aa473-894, 150 μM ATP
[2] = further data set (WW-001 through WW-169, XX-001 through XX-469, YY-001 through YY-016, ZZ-001 through ZZ-003), 150 μM ATP

Compound | pIC50 [1] | pIC50 [2]
COc1ccc(-c2cccc3nc(NC(=O)C4CC4)nn23)cc1F [WW-067] | 5.00 to 6.00 | 5.00 to 6.00
CNCCOc1cccc(Nc2nc3cccc(-c4ccc5c(c4)OCCO5)n3n2)c1 [XX-081] | > 6.00 | ≥ 7.00
FC(F)(F)c1ccc(-c2nccc3nc(Nc4ccc(OCCN5CCCC5)cc4)nn23)cc1 [YY-013] |  | 6.00 to 7.00
COC(=O)c1ccc(-c2cccc3nc(NC(=O)C4CC4)nn23)cc1 [WW-070] | 5.00 to 6.00 | 5.00 to 6.00
COc1ccc(-c2nccc3nc(Nc4ccc(OCCN(C)C)cc4)nn23)cc1 [YY-003] | > 6.00 and 6.98 | 6.00 to 7.00
O=C(Nc1nc2cccc(-c3ccc([N+](=O)[O-])cc3)n2n1)C1CC1 [WW-107] | 5.00 to 6.00 | 5.00 to 6.00
COc1ccc(-c2cccc3nc(Nc4ccc(OCCN5CCCC5)cc4)nn23)cc1 [XX-004] | > 6.00 | 5.00 to 6.00
Clc1ccc(-c2cccc3nc(Nc4ccc(OCCN5CCCC5)cc4)nn23)cc1 [XX-211] |  | ≥ 7.00
O=C(Nc1nc2cccc(-c3cccc(C(F)(F)F)c3)n2n1)C1CC1 [WW-033] | 5.00 to 6.00 | 5.00 to 6.00
O=C(CCN1CCCCC1)Nc1ccc(Nc2nc3cccc(-c4ccc5c(c4)OCCO5)n3n2)cc1 [XX-123] |  | 6.00 to 7.00
COc1ccc(-c2cccc3nc(Nc4cccc(OCCN5CCOCC5)c4)nn23)cc1 [XX-014] | > 6.00 | 6.00 to 7.00
Clc1cccc(-c2cccc3nc(Nc4ccc(OCCN5CCCC5)cc4)nn23)c1 [XX-210] |  | 6.00 to 7.00
Clc1ccc(-c2cccc3nc(Nc4ccc(OCCN5CCCC5)cc4)nn23)cc1Cl [XX-297] |  | 6.00 to 7.00
O=C(Nc1nc2cccc(-c3ccc4ncccc4c3)n2n1)C1CC1 [WW-092] | > 6.00 | 6.00 to 7.00
c1ccc(-c2nnc(-c3cccc(-c4cccc5nc(Nc6ccc(OCCN7CCCC7)cc6)nn45)c3)o2)cc1 [XX-309, {5-[3-(5-Phenyl-[1,3,4]oxadiazol-2-yl)-phenyl]-[1,2,4]triazolo[1,5-a]pyridin-2-yl}-[4-(2-pyrrolidin-1-yl-ethoxy)-phenyl]-amine] |  | 5.00 to 6.00
O=C(CCN1CCCC1)Nc1cccc(Nc2nc3cccc(-c4ccc5c(c4)OCCO5)n3n2)c1 [XX-109] |  | 6.00 to 7.00
Cc1ncc(CNc2cccc(-c3cccc4nc(Nc5ccc(OCCN6CCCC6)cc5)nn34)c2)n1C [XX-449] |  | 6.00 to 7.00
c1cc(-c2ccc3c(c2)OCCO3)n2nc(Nc3ccc(NCCCN4CCCCC4)cc3)nc2c1 [XX-129] |  | 6.00 to 7.00
COc1c(C)cc(-c2cccc3nc(NC(=O)C4CC4)nn23)cc1C [WW-095] | 5.00 to 6.00 | 5.00 to 6.00
c1cc(-c2ccncc2)n2nc(Nc3ccc(OCCN4CCCC4)cc3)nc2c1 [XX-219] |  | 5.00 to 6.00
O=C(Nc1nc2cccc(NCc3cccc(Cl)c3)n2n1)C1CC1 [WW-081] | 5.00 to 6.00 | 5.00 to 6.00
c1cc(-c2ccco2)cc(-c2cccc3nc(Nc4ccc(OCCN5CCCC5)cc4)nn23)c1 [XX-168] |  | 6.00 to 7.00
O=C(Nc1nc2cccc(-c3ccc4ccccc4c3)n2n1)C1CC1 [WW-089] | > 6.00 | 6.00 to 7.00
O=C(Nc1nc2cccc(-c3ccn[nH]3)n2n1)C1CC1 [WW-053] | 5.00 to 6.00 | 5.00 to 6.00
Cc1cc(CNc2cccc(-c3cccc4nc(Nc5ccc(OCCN6CCCC6)cc5)nn34)c2)n(C)n1 [XX-262] |  | 5.00 to 6.00
Cc1c(-c2cccc3nc(Nc4ccc(OCCN5CCCC5)cc4)nn23)cnn1-c1ccccc1 [XX-438] |  | 6.00 to 7.00

Compound | pIC50 [1] | pIC50 [2]
C[C@@H](N)COc1ccc(Nc2nc3cccc(-c4ccc5c(c4)OCCO5)n3n2)cc1 [XX-138] |  | 6.00 to 7.00
Cc1ccc(-c2cccc3nc(NC(=O)C4CC4)nn23)cn1 [WW-084] | 5.00 to 6.00 | 5.00 to 6.00
COc1ccc(OC)c(-c2cccc3nc(Nc4ccc(OCCN5CCCC5)cc4)nn23)c1 [XX-333] |  | 5.00 to 6.00
COc1ccc(Nc2cccc3nc(NC(=O)C4CC4)nn23)cc1 [WW-127, Cyclopropanecarboxylic acid [5-(4-methoxy-phenylamino)-[1,2,4]triazolo[1,5-a]pyridin-2-yl]-amide] | 5.00 to 6.00 | 5.00 to 6.00
O=C(Nc1nc2cccc(-c3cccc(-n4cccn4)c3)n2n1)C1CC1 [WW-137] | 5.00 to 6.00 | 5.00 to 6.00
O=C(Nc1nc2cccc(-c3cccc(O)c3)n2n1)C1CC1 [WW-020] | 5.00 to 6.00 | 5.00 to 6.00
CC(C(=O)Nc1cccc(Nc2nc3cccc(-c4ccc5c(c4)OCCO5)n3n2)c1)N1CCCC1 (stereo not shown) [XX-136] |  | ≥ 7.00
C[C@H](N)COc1ccc(Nc2nc3cccc(-c4ccc5c(c4)OCCO5)n3n2)cc1 [XX-143, [4-((S)-2-Amino-propoxy)-phenyl]-[5-(2,3-dihydro-benzo[1,4]dioxin-6-yl)-[1,2,4]triazolo[1,5-a]pyridin-2-yl]-amine] |  | 6.00 to 7.00
O=C(Nc1nc2cccc(-c3ccc4[nH]ccc4c3)n2n1)C1CC1 [WW-018] | > 6.00 | 6.00 to 7.00
COc1cc(-c2cccc3nc(NC(=O)C4CC4)nn23)ccc1O [WW-093] | 5.00 to 6.00 | 5.00 to 6.00
O=C(Nc1nc2cccc(-c3ccc4c(c3)CCO4)n2n1)C1CC1 [WW-159] | > 6.00 | 6.00 to 7.00
CCOc1ccc(-c2nccc3nc(NC(=O)C4CC4)nn23)cc1 [ZZ-002] |  | 6.00 to 7.00
Cn1nnnc1SCCn1cc(-c2cccc3nc(Nc4ccc(OCCN5CCCC5)cc4)nn23)cn1 [XX-428] |  | 5.00 to 6.00
Cc1ccc(-c2cccc(-c3cccc4nc(Nc5ccc(OCCN6CCCC6)cc5)nn34)c2)s1 [XX-463] |  | 5.00 to 6.00
c1ccc(CCNc2ccc(-c3cccc4nc(Nc5ccc(OCCN6CCCC6)cc5)nn34)cc2)cc1 [XX-265] |  | 5.00 to 6.00
Cc1noc(C)c1S(=O)(=O)n1cc(-c2cccc3nc(Nc4ccc(OCCN5CCCC5)cc4)nn23)cn1 [XX-385] |  | 6.00 to 7.00
CC(C)CCCn1cc(-c2cccc3nc(Nc4ccc(OCCN5CCCC5)cc4)nn23)cn1 [XX-345] |  | 6.00 to 7.00
NCc1ccc(-c2cccc3nc(NC(=O)C4CC4)nn23)cc1 [WW-050] | 5.00 to 6.00 | 5.00 to 6.00
O=C(Nc1nc2cccc(-c3ccc(F)c(O)c3)n2n1)C1CC1 [WW-097] | > 6.00 | 6.00 to 7.00
COc1ccccc1NC(=O)Nc1cccc(-c2cccc3nc(Nc4ccc(OCCN5CCCC5)cc4)nn23)c1 [XX-229] |  | 5.00 to 6.00
c1cc(-c2ccc3c(c2)OCCO3)n2nc(Nc3ccc(NCCN4CCCC4)cc3)nc2c1 [XX-105] |  | 6.00 to 7.00
CC(C)Oc1ccc(-c2cccc3nc(NC(=O)C4CC4)nn23)cc1 [WW-150] | 5.00 to 6.00 | 5.00 to 6.00
O=C(Nc1ccc(C(F)(F)F)cc1)Nc1cccc(-c2cccc3nc(Nc4ccc(OCCN5CCCC5)cc4)nn23)c1 [XX-225] |  | 5.00 to 6.00
F[C@H]1CCN(CCOc2ccc(Nc3nc4cccc(-c5ccc6c(c5)OCCO6)n4n3)cc2)C1 [XX-157] |  | 6.00 to 7.00
CN(C(=O)CN1CCCC1)c1ccc(Nc2nc3cccc(-c4ccc5c(c4)OCCO5)n3n2)cc1 [XX-153] |  | ≥ 7.00
O=C(Nc1nc2cccc(-c3ccc4cc[nH]c4c3)n2n1)C1CC1 [WW-106] | > 6.00 | 6.00 to 7.00
